Data taken from patent publication US9034303B2, “Neuroprotective and neuro-restorative iron chelators and monoamine oxidase inhibitors and uses thereof” (priority 2010, dated 2015).
pIC50: −log10 of the molar value. “Also recorded” adds a separate entry of the source. Like-named read-outs stand apart in the source and are kept apart here. Marks after values point to notes of the source that are not given here. Values belong to the compound of their own block, whether it stands above or below them.

Legend:
[1] = Stability in aqueous solution (PBS or saline) followed by HPLC; type: physicochemical; settings: for Stability in aqueous solution (in words): PBS and/or saline solution; for Amount of compound remaining (%): 0.5 mM
Method: (§1) Using high pressure liquid chromatography (HPLC), the stability of each of the tested compounds was determined by following its respective chemical character over time in either phosphate buffered saline (PBS) and/or 0.85% saline solution (sodium chloride). In each case, 0.5 mM of the tested compound in PBS or saline solution was incubated at 25° C. or at 37° C. for 20 hours or, in some cases, up to two days (48 hours).

rat brain MAO-A = rat brain MAO-A (Rattus norvegicus (Rat), UniProt P21396); assay: In vitro inhibition of rat brain MAO-A (14C-5-HT substrate); type: biochemical; settings: for pIC50: estimated from the data in FIG. 1, rat brain MAO-A, read-out: MAO-A IC50
Method: (§2) Rats are decapitated and the brains quickly taken into a weighted ice-cold sucrose buffer (0.32 M) and their weights determined. All subsequent procedures are performed at 0° C. The brains are homogenized in 0.32 M sucrose (one part tissue to 20 parts sucrose) in a Teflon glass homogenizer followed by the addition of sucrose buffer to a final concentration of 10% homogenate. The homogenates are centrifuged at 600 g for 15 min. The supernatant fractions are taken out and centrifuged at 4500 g for 30 min, the pellet diluted in 0.32 M sucrose buffer and kept frozen for later assaying of MAO. Protein concentration is determined with Bradford reagent at λ=595 nm, using BSA as a standard.
(§3) MAO-A and MAO-B activities are determined in rat brain homogenate in vitro following incubation with varying concentrations of the test compounds.
The activity of MAO-A and MAO-B was determined by the adapted method of Tipton & Youdim (Tipton K F, O'Sullivan J, Youdim M B, 1983, Encyclopedia of Neuroscience, 2004, G. Adelman and B. H. Smith, Elsevier). The test compound was added to a suitable dilution of the enzyme preparation (70 μg protein for MAO-B and 150 μg MAO-A assay) in 0.1 M phosphate buffer (pH 7.4). The mixture was incubated together with […], a specific inhibitor of MAO-B (for determination of MAO-A) or 0.05 M clorgylin, a specific inhibitor of MAO-A (for determination of MAO-B). Incubation was carried for 0.5 or 1 h at 37° C. before addition of ^14C-5-hydroxytryptamine binoxalate (5-HT) (100 or 400 μM) for determination of MAO-A, or ^14C-phenylethylamine (^14C-PEA) 100 or 400 μM for determination of MAO-B, and incubation continued for 30 min or 20 min, respectively. The reaction was stopped with 2 M ice-cold citric acid, and the metabolites were extracted and determined by liquid-scintillation counting in cpm units. […]
(§4) MAO-A and MAO-B activity was measured using radioactive substrates. The substrate for MAO-A was 5 HT and for MAO-B was PEA. When measuring the activity of MAO-A, the MAO-B activity was inhibited with deprenyl and when measuring the activity of MAO-B the activity of MAO-A was inhibited with clorgylin. Blank samples were produced using TCP to inhibit both of the enzymes. The metabolites were extracted to toluene and read in a β-counter. The results are expressed in relative activity and normalized to the amount of protein in the tissue.

rat brain MAO-B = rat brain MAO-B (Rattus norvegicus (Rat), UniProt P19643); assay: In vitro inhibition of rat brain MAO-B (14C-PEA substrate); type: biochemical; settings: for pIC50: estimated from FIG. 2, rat brain MAO-B, read-out: MAO-B IC50
Method: as §2, with “MAO.” for “MAO. Protein concentration is determined with Bradford reagent at λ=595 nm, using BSA as a standard.”
as §3
The in vitro inhibitory activity of the compounds is tested against rat brain MAO-B. The test compounds are added to buffer containing 10^−7 M clorgylin and are incubated with the tissue homogenate for 30 or 60 min at 37° C. before addition of ^14C-PEA.
The test compound was added to a suitable dilution of the enzyme preparation (70 μg protein for MAO-B and 150 μg MAO-A assay) in 0.1 M phosphate buffer (pH 7.4). The mixture was incubated together with […], a specific inhibitor of MAO-B (for determination of MAO-A) or 0.05 M clorgylin, a specific inhibitor of MAO-A (for determination of MAO-B). Incubation was carried for 0.5 or 1 h at 37° C. before addition of ^14C-5-hydroxytryptamine binoxalate (5-HT) (100 or 400 μM) for determination of MAO-A, or ^14C-phenylethylamine (^14C-PEA) 100 or 400 μM for determination of MAO-B, and incubation continued for 30 min or 20 min, respectively. The reaction was stopped with 2 M ice-cold citric acid, and the metabolites were extracted and determined by liquid-scintillation counting in cpm units.
The reaction was stopped with 2 M ice-cold citric acid, and the metabolites were extracted with ethyl acetate and levels of radioactivity were determined by liquid-scintillation counting in CPM units. All assays were performed at least in duplicate and outcome was expressed as a mean±SEM. Data were analyzed by a Student's t test. Variations were considered statistically significant at a p value of 0.05.
as §4

[2] = Follow-up stability experiment at 37° C. in PBS; type: physicochemical
Method: as §1
In addition, in a follow-up experiment the instability of M30, and the stability of compounds 3, 7 and 8 was also confirmed at 37° C. in PBS, Table 2, below.

HepG2 cells = assay: Cytotoxicity in presence and absence of exogenous iron, HepG2; type: cell-based, human; settings: iron alone, 20 μM
Method: (§5) The potential of compound 3 to be toxic in the presence of free iron was also tested. The iron complexation method was based on the method of Leanderson and Tagesson (Carcinogenesis, 17, 545-550, 1996) with some modifications. Iron (III) was prepared from ferric ammonium citrate (Sigma, F5879) at 80 mM in sterile distilled water. Compound 3 was prepared at a 200 mM concentration in DMSO. Before each experiment, the freshly prepared iron (III) solution was diluted to 0.4 mM in PBS II (PBS containing 0.90 mM Ca^2+ and 0.49 mM Mg^2+). Compound 3 stock solutions were diluted to 2, 0.2, and 0.02 mM with PBS II. Equal volumes of the 0.4 mM iron (III) solution and compound 3 solutions were added together to prepare iron/test article complex solutions containing 1, 0.1, and 0.01 mM compound 3 and 0.2 mM iron (III). The compound 3 DMSO stock solution was diluted in PBS II at 1, 0.1, or 0.01 mM and used as compound 3 control without iron. An equal volume of the 0.4 mM iron (III) solution was diluted in PBS II to prepare a control containing only iron.
(§6) The medium was removed from the plated cells (both cell lines) and replaced with fresh medium (90 μL). Iron/compound 3 complex or compound 3 in PBS II without iron was added to cells in triplicate (10 μL) to final compound 3 concentrations of 100, 10, and 1 μM and an iron (III) concentration of 20 μM. Wells containing no cells were used as the background control. PBS II was run as vehicle control. Iron only was run at a final concentration of 20 μM.
(§7) Cell viability was determined as described above and cytotoxicity was compared between treatments with and without iron complexation.

SHSY-5Y cells = assay: Cytotoxicity in presence and absence of exogenous iron, SH-SY5Y; type: cell-based, human; settings: iron alone, 20 μM
Method: as §5, §6, §7

[3] = concentration 0.01 mM, rat brain extracts
[4] = concentration 0.1 mM, rat brain extracts

rat brain MAO-B, sequence (P19643 whole entry): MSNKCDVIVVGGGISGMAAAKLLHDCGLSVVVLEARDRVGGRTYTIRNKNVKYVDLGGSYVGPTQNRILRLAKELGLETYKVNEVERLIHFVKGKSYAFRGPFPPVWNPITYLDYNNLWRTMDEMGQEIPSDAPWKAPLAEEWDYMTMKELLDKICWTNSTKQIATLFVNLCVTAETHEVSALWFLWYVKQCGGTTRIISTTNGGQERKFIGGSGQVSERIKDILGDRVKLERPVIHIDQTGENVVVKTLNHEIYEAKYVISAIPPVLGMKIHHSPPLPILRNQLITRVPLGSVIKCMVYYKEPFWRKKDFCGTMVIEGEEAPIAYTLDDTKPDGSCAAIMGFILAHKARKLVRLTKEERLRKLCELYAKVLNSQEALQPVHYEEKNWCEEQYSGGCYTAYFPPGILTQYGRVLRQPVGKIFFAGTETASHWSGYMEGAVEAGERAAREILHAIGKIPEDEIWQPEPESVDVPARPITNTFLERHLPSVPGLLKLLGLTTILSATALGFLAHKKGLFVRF
rat brain MAO-A, sequence (P21396 whole entry): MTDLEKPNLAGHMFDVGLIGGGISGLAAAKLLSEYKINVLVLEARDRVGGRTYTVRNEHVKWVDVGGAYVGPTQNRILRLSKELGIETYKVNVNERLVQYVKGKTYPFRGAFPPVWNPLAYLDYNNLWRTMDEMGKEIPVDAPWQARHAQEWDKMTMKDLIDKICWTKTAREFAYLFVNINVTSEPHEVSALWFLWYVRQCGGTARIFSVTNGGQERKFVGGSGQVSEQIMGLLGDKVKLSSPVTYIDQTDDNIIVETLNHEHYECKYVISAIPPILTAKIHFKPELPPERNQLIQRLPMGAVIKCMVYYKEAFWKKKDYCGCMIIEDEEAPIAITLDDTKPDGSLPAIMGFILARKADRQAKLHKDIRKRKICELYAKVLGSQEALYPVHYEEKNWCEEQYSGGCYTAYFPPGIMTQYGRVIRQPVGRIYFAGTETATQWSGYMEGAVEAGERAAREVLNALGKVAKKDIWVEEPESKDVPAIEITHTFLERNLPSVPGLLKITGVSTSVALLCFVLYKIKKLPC

Amount of compound remaining (%) ([2]; 3 hours): 99.7%
Amount of compound remaining (%) ([2]; 8 hours): 97.7%
Amount of compound remaining (%) ([2]; 24 hours): 94.1%
Amount of compound remaining (%) ([2]; 48 hours): 100%
Compound: C#CCN(C)CCc1cc(C2CC2)c(O)c2ncccc12 [Compound 7, 7-cyclopropyl-5-[2-(methyl-2-propyn-1-ylamino)ethyl]-8-quinolinol]

Amount of compound remaining (%) ([2]; 3 hours): ≧100%
Amount of compound remaining (%) ([2]; 8 hours): 96.7%
Amount of compound remaining (%) ([2]; 24 hours): ≧100%
Amount of compound remaining (%) ([2]; 48 hours): ≧100%
Compound: C#CCN(C)CCc1cc(F)c(O)c2ncccc12 [Compound 8, 7-fluoro-5-[2-(methyl-2-propyn-1-ylamino)ethyl]-8-quinolinol]

Amount of compound remaining (%) ([1]; PBS, 25° C., 0.5 hours): 100%
Amount of compound remaining (%) ([1]; PBS, 25° C., 2 hours): 100%
Amount of compound remaining (%) ([1]; PBS, 25° C., 20 hours): 100%
Amount of compound remaining (%) ([1]; PBS, 25° C., 48 hours): 100%
Amount of compound remaining (%) ([1]; saline, 37° C., 0.5 hours): 100%
Amount of compound remaining (%) ([1]; saline, 37° C., 2 hours): 100%
Amount of compound remaining (%) ([1]; saline, 37° C., 20 hours): 100%
Amount of compound remaining (%) ([1]; saline, 37° C., 48 hours): 100%
Compound: C#CCN(C)CCc1ccc(OC)c2ncccc12 [[O-Methyl-Compound 3], 8-methoxy-N-methyl-N-2-propyn-1-yl-5-quinolineethanamine]
Stability in aqueous solution (in words) [1]: highly stable chemically; also recorded: stable in PBS at 37 °C for at least two days

Second part, the compound before the results:

Compound: C#CCN(C)C(C)c1ccc(O)c2ncccc12 (stereo not shown) [5-(1-(methyl(prop-2-ynyl) amino)ethyl)quinolin-8-ol]
Stability in aqueous solution (in words) [1]: **Decomposition of 5-(1-(methyl(prop-2-ynyl) amino)ethyl)quinolin-8-ol occurred immediately upon dissolution in PBS aspredicted by the working hypothesis

Compound: C#CCN(C)C(C)c1ccc(O)c2ncccc12 (stereo not shown) [5-(1-(methyl(prop-2-ynyl)amino)ethyl)quinolin-8-ol] [5-[1-(methyl-2-propyn-1-ylamino)ethyl]-8-quinolinol]
Stability in aqueous solution (in words) [1]: decomposed immediately
Amount of compound remaining (%) ([1]; PBS, 25° C., 0.5 hours): 0.0** %

Compound: C#CCN(C)CCCc1ccc(O)c2ncccc12 [Compound 4, 5-[3-(methyl-2-propyn-1-ylamino)propyl]-8-quinolinol]
Stability in aqueous solution (in words) [1]: highly stable chemically
Amount of compound remaining (%) ([1]; PBS, 25° C., 0.5 hours): 100%
Amount of compound remaining (%) ([1]; PBS, 25° C., 2 hours): 100%
Amount of compound remaining (%) ([1]; PBS, 25° C., 20 hours): 100%
Amount of compound remaining (%) ([1]; PBS, 25° C., 48 hours): 100%
Amount of compound remaining (%) ([1]; saline, 25° C., 0.5 hours): 100%
Amount of compound remaining (%) ([1]; saline, 25° C., 2 hours): 100%
Amount of compound remaining (%) ([1]; saline, 25° C., 20 hours): 100%
Amount of compound remaining (%) ([1]; saline, 25° C., 48 hours): 100%
pIC50 (rat brain MAO-A; listed as compound 4): ~6.70
pIC50 (rat brain MAO-A): 6.70
Inhibition of rat brain MAO-A in vitro (in words) (rat brain MAO-A): potent inhibitors
pIC50 (rat brain MAO-B): 7.00
Inhibition of rat brain MAO-B in vitro (in words) (rat brain MAO-B): potent inhibitors

Compound: [Fe+3] [Iron]
HepG2 cell death (%) (HepG2 cells): 1.6%
SHSY-5Y cell death (%) (SHSY-5Y cells): −1.0%

Compound: C#CCN(C)Cc1ccc(OC)c2ncccc12 [O-Methyl-M30]
inhibition at 10 µM (rat brain MAO-A; [3]): 98.5%
inhibition at 100 µM (rat brain MAO-A; [4]): 99.7%
pIC50 (rat brain MAO-A): 6.52 to 6.60
Inhibition of rat brain MAO-A in vitro (in words) (rat brain MAO-A): potent inhibitors
Inhibition of rat brain MAO-A in vitro (in words) (rat brain MAO-A; listed as O-methyl M30): inhibits both brain MAO-A and MAO-B at apparently similar levels
inhibition at 10 µM (rat brain MAO-B; [3]): 87.8%
inhibition at 100 µM (rat brain MAO-B; [4]): 97.3%
pIC50 (rat brain MAO-B): 7.40 to 7.70
Inhibition of rat brain MAO-B in vitro (in words) (rat brain MAO-B): potent inhibitors
Inhibition of rat brain MAO-B in vitro (in words) (rat brain MAO-B; listed as O-methyl M30): inhibits both brain MAO-A and MAO-B at apparently similar levels
